Experimental data reported in PubChem BioAssay AID256 (DTP/NCI, 2004).
Values joined by “and” are separate entries in the source; they are usually repeats but may differ in a detail not shown here. Equal entries are not always repeated. Inconclusive results and toxic doses are left out.

Tested on: CD2F1 mice, L1210 leukemia ip, survival T/C
Test: NCI In Vivo Anticancer Drug Screen. Data for tumor model L1210 Leukemia (intraperitoneal) in CD2F1 (CDF1) mice
Conditions: higher = longer survival
Method in brief: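 Mice carrying a transplanted tumor received test compound or vehicle alone. The value is the measurement in the treated group divided by that in the vehicle-treated control group.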

[1] = endpoint: mean survival time, dose: 100.0 mg/kg/injection, schedule: Q04DX003 (ip), vehicle: saline with Tween-80
[2] = endpoint: mean survival time, dose: 200.0 mg/kg/injection, schedule: Q04DX003 (ip), vehicle: saline with Tween-80
[3] = endpoint: mean survival time, dose: 400.0 mg/kg/injection, schedule: Q04DX003 (ip), vehicle: saline with Tween-80
[4] = endpoint: mean survival time, dose: 100.0 mg/kg/injection, schedule: Q01DX009 (ip), vehicle: Klucel (hydroxypropylcellulose) (HPC)
[5] = endpoint: mean survival time, dose: 200.0 mg/kg/injection, schedule: Q01DX009 (ip), vehicle: Klucel (hydroxypropylcellulose) (HPC)
[6] = endpoint: mean survival time, dose: 400.0 mg/kg/injection, schedule: Q01DX009 (ip), vehicle: Klucel (hydroxypropylcellulose) (HPC)
[7] = endpoint: mean survival time, dose: 100.0 mg/kg/injection, schedule: Q01DX009 (ip), vehicle: saline with Tween-80
[8] = endpoint: mean survival time, dose: 200.0 mg/kg/injection, schedule: Q01DX009 (ip), vehicle: saline with Tween-80
[9] = endpoint: mean survival time, dose: 400.0 mg/kg/injection, schedule: Q01DX009 (ip), vehicle: saline with Tween-80
[10] = endpoint: mean survival time, dose: 100.0 mg/kg/injection, schedule: Q01DX001 (ip), vehicle: saline
[11] = endpoint: mean survival time, dose: 200.0 mg/kg/injection, schedule: Q01DX001 (ip), vehicle: saline
[12] = endpoint: mean survival time, dose: 400.0 mg/kg/injection, schedule: Q01DX001 (ip), vehicle: saline
[13] = endpoint: mean survival time, dose: 12.5 mg/kg/injection, schedule: Q01DX009 (ip), vehicle: saline with Tween-80
[14] = endpoint: mean survival time, dose: 25.0 mg/kg/injection, schedule: Q01DX009 (ip), vehicle: saline with Tween-80
[15] = endpoint: mean survival time, dose: 50.0 mg/kg/injection, schedule: Q01DX009 (ip), vehicle: saline with Tween-80
[16] = endpoint: mean survival time, dose: 6.25 mg/kg/injection, schedule: Q01DX009 (ip), vehicle: saline with Tween-80

CC12CCC3C(CCC4CC(O)CCC43C)C1CCC2=O (configuration not stated)
T/C [1]: 103 % of control | T/C [2]: 92 % of control | T/C [3]: 97 % of control

O=C1CC2(C(=O)N1CN1CCCCC1)c1ccccc1-c1ccccc12
T/C (endpoint: mean survival time, dose: 12.5 mg/kg/injection, schedule: Q01DX009 (ip), vehicle: Klucel (hydroxypropylcellulose) (HPC)): 94 % of control and 102 % of control | T/C (endpoint: mean survival time, dose: 25.0 mg/kg/injection, schedule: Q01DX009 (ip), vehicle: Klucel (hydroxypropylcellulose) (HPC)): 91 % of control and 105 % of control | T/C (endpoint: mean survival time, dose: 50.0 mg/kg/injection, schedule: Q01DX009 (ip), vehicle: Klucel (hydroxypropylcellulose) (HPC)): 98 % of control and 100 % of control | T/C [4]: 94 % of control and 102 % of control | T/C [5]: 100 % of control | T/C [6]: 158 % of control

O=C1c2ccccc2C(=O)N1CCN1C(=O)c2ccccc2C1=O
T/C (endpoint: mean survival time, dose: 75.0 mg/kg/injection, schedule: Q01DX001 (ip), vehicle: saline with Tween-80): 94 % of control | T/C (endpoint: mean survival time, dose: 150.0 mg/kg/injection, schedule: Q01DX001 (ip), vehicle: saline with Tween-80): 95 % of control | T/C (endpoint: mean survival time, dose: 300.0 mg/kg/injection, schedule: Q01DX001 (ip), vehicle: saline with Tween-80): 94 % of control

CCOc1ccc(-n2c(O)c(N=Nc3ccccc3OC)c(=O)n(-c3ccc(OC)cc3)c2=S)cc1
T/C (endpoint: mean survival time, dose: 100.0 mg/kg/injection, schedule: Q01DX001 (ip), vehicle: saline with Tween-80): 101 % of control | T/C (endpoint: mean survival time, dose: 200.0 mg/kg/injection, schedule: Q01DX001 (ip), vehicle: saline with Tween-80): 95 % of control | T/C (endpoint: mean survival time, dose: 400.0 mg/kg/injection, schedule: Q01DX001 (ip), vehicle: saline with Tween-80): 94 % of control

O=C1C=CC(=O)N1c1ccc(Cl)cc1Cl
T/C (endpoint: mean survival time, dose: 12.5 mg/kg/injection, schedule: Q04DX003 (ip), vehicle: saline with Tween-80): 103 % of control | T/C (endpoint: mean survival time, dose: 25.0 mg/kg/injection, schedule: Q04DX003 (ip), vehicle: saline with Tween-80): 100 % of control

O=Cc1cc2c(cc1Br)OCO2
T/C [7]: 98 % of control | T/C [1]: 98 % of control | T/C [8]: 97 % of control | T/C [2]: 101 % of control | T/C [9]: 92 % of control | T/C [3]: 98 % of control

O=C(O)CCC(Cc1ccccc1)C(=O)O (configuration not stated)
T/C [7]: 97 % of control | T/C [8]: 94 % of control | T/C [9]: 86 % of control

O=C(Nc1cccc(Cl)c1)c1c[nH]c2cc(Cl)ccc2c1=O
T/C [7]: 101 % of control | T/C [1]: 96 % of control | T/C [8]: 95 % of control | T/C [2]: 93 % of control | T/C [9]: 101 % of control | T/C [3]: 93 % of control

O=c1[nH]c2c([N+](=O)[O-])cc(Br)cc2c2ccccc12
T/C (endpoint: mean survival time, dose: 100.0 mg/kg/injection, schedule: Q01DX001 (ip), vehicle: carboxymethylcellulose (CMC)): 100 % of control | T/C (endpoint: mean survival time, dose: 200.0 mg/kg/injection, schedule: Q01DX001 (ip), vehicle: carboxymethylcellulose (CMC)): 94 % of control | T/C (endpoint: mean survival time, dose: 400.0 mg/kg/injection, schedule: Q01DX001 (ip), vehicle: carboxymethylcellulose (CMC)): 100 % of control

COc1ccccc1N1C(=O)C=CC1=O
T/C (endpoint: mean survival time, dose: 5.0 mg/kg/injection, schedule: Q04DX003 (ip), vehicle: saline with Tween-80): 98 % of control | T/C (endpoint: mean survival time, dose: 10.0 mg/kg/injection, schedule: Q04DX003 (ip), vehicle: saline with Tween-80): 100 % of control | T/C (endpoint: mean survival time, dose: 20.0 mg/kg/injection, schedule: Q04DX003 (ip), vehicle: saline with Tween-80): 95 % of control

CCCNC(=O)Oc1c(C(C)C)ccc(C)c1Cl
T/C (endpoint: mean survival time, dose: 100.0 mg/kg/injection, schedule: Q04DX003 (ip), vehicle: saline): 98 % of control | T/C (endpoint: mean survival time, dose: 200.0 mg/kg/injection, schedule: Q04DX003 (ip), vehicle: saline): 101 % of control | T/C (endpoint: mean survival time, dose: 400.0 mg/kg/injection, schedule: Q04DX003 (ip), vehicle: saline): 95 % of control

Cn1ccc(=O)nc1
T/C (endpoint: mean survival time, dose: 100.0 mg/kg/injection, schedule: Q04DX003 (ip), vehicle: saline sonified): 102 % of control | T/C (endpoint: mean survival time, dose: 200.0 mg/kg/injection, schedule: Q04DX003 (ip), vehicle: saline sonified): 104 % of control | T/C (endpoint: mean survival time, dose: 400.0 mg/kg/injection, schedule: Q04DX003 (ip), vehicle: saline sonified): 104 % of control

S=C1SCCN1C1CCCCC1
T/C [7]: 102 % of control | T/C [1]: 92 % of control | T/C [8]: 96 % of control | T/C [2]: 96 % of control | T/C [9]: 93 % of control | T/C [3]: 92 % of control

COC(=O)c1[nH]nc(-c2ccc(N)cc2)c1N
T/C (endpoint: mean survival time, dose: 3.13 mg/kg/injection, schedule: Q01DX005 (ip), vehicle: other): 114 % of control | T/C (endpoint: mean survival time, dose: 6.25 mg/kg/injection, schedule: Q01DX005 (ip), vehicle: other): 93 % of control | T/C (endpoint: mean survival time, dose: 12.5 mg/kg/injection, schedule: Q01DX005 (ip), vehicle: other): 107 % of control | T/C (endpoint: mean survival time, dose: 25.0 mg/kg/injection, schedule: Q01DX005 (ip), vehicle: other): 93 % of control | T/C (endpoint: mean survival time, dose: 50.0 mg/kg/injection, schedule: Q01DX005 (ip), vehicle: other): 93 % of control

CCOC(=O)NC(S(=O)(=O)O)S(=O)(=O)O
T/C [10]: 104 % of control | T/C [11]: 104 % of control | T/C [12]: 108 % of control

O=CC=O
T/C [13]: 100 % of control and 106 % of control | T/C [14]: 103 % of control and 107 % of control | T/C [15]: 97 % of control and 106 % of control | T/C [7]: 115 % of control and 107 % of control | T/C [8]: 106 % of control and 111 % of control | T/C [9]: 120 % of control and 108 % of control

[CH3][Sn]([CH3])([Cl])[S]CCN
T/C (endpoint: median survival time, dose: 3.12 mg/kg/injection, schedule: Q01DX009 (ip), vehicle: saline): 107 % of control | T/C (endpoint: median survival time, dose: 6.25 mg/kg/injection, schedule: Q01DX009 (ip), vehicle: saline): 101 % of control | T/C (endpoint: median survival time, dose: 12.5 mg/kg/injection, schedule: Q01DX009 (ip), vehicle: saline): 109 % of control | T/C (endpoint: median survival time, dose: 25.0 mg/kg/injection, schedule: Q01DX009 (ip), vehicle: saline): 111 % of control | T/C (endpoint: median survival time, dose: 50.0 mg/kg/injection, schedule: Q01DX009 (ip), vehicle: saline): 114 % of control

CCOC(=O)Nc1cc2c(c(N)n1)N=C(CCc1ccccc1)CN2
T/C (endpoint: mean survival time, dose: 25.0 mg/kg/injection, schedule: Q01DX001 (ip), vehicle: Klucel (hydroxypropylcellulose) (HPC)): 107 % of control | T/C (endpoint: mean survival time, dose: 50.0 mg/kg/injection, schedule: Q01DX001 (ip), vehicle: Klucel (hydroxypropylcellulose) (HPC)): 114 % of control | T/C (endpoint: mean survival time, dose: 200.0 mg/kg/injection, schedule: Q01DX001 (ip), vehicle: Klucel (hydroxypropylcellulose) (HPC)): 116 % of control

C=C(C)CCNc1ncnc2nc[nH]c12
T/C [1]: 97 % of control | T/C [2]: 101 % of control | T/C [3]: 95 % of control

O=Cc1ccc([N+](=O)[O-])s1
T/C (endpoint: mean survival time, dose: 3.12 mg/kg/injection, schedule: Q01DX009 (ip), vehicle: saline with Tween-80): 102 % of control and 108 % of control | T/C [16]: 96 % of control and 102 % of control | T/C [13]: 97 % of control and 98 % of control | T/C [14]: 104 % of control and 105 % of control | T/C [15]: 103 % of control and 107 % of control | T/C [7]: 109 % of control

CN(C)c1ccc2nc3ccc(=O)cc-3sc2c1
T/C [4]: 98 % of control | T/C [5]: 101 % of control | T/C [6]: 103 % of control

CS(=O)(=O)OCCN(CCOS(C)(=O)=O)c1ccc(C=Nc2ccc(C(=O)O)c(O)c2)cc1
T/C (endpoint: mean survival time, dose: 0.5 mg/kg/injection, schedule: Q01DX009 (ip), vehicle: saline): 104 % of control | T/C (endpoint: mean survival time, dose: 1.0 mg/kg/injection, schedule: Q01DX009 (ip), vehicle: saline): 101 % of control | T/C (endpoint: mean survival time, dose: 2.0 mg/kg/injection, schedule: Q01DX009 (ip), vehicle: saline): 107 % of control | T/C (endpoint: mean survival time, dose: 4.0 mg/kg/injection, schedule: Q01DX009 (ip), vehicle: saline): 104 % of control

O.O.[Cl][Pt+2][Cl].[NH-]CC[NH-]
T/C (endpoint: median survival time, dose: 3.12 mg/kg/injection, schedule: Q04DX003 (ip), vehicle: distilled water + Tween-80): 101 % of control | T/C (endpoint: median survival time, dose: 6.25 mg/kg/injection, schedule: Q04DX003 (ip), vehicle: distilled water + Tween-80): 102 % of control | T/C (endpoint: median survival time, dose: 12.5 mg/kg/injection, schedule: Q04DX003 (ip), vehicle: distilled water + Tween-80): 111 % of control | T/C (endpoint: median survival time, dose: 25.0 mg/kg/injection, schedule: Q04DX003 (ip), vehicle: distilled water + Tween-80): 108 % of control | T/C (endpoint: median survival time, dose: 50.0 mg/kg/injection, schedule: Q04DX003 (ip), vehicle: distilled water + Tween-80): 105 % of control

O=C1C=CC(=O)N1c1ccc2c(c1)OCO2
T/C [16]: 91 % of control | T/C [13]: 86 % of control

CC1(C)OCC(CO)([N+](=O)[O-])CO1
T/C [1]: 96 % of control

O=c1[nH]c2c(c(=O)n1-c1ccccc1)CCCS2
T/C [10]: 103 % of control | T/C [11]: 104 % of control | T/C [12]: 103 % of control

COC(CO)(OC)c1ccccc1
T/C [1]: 102 % of control | T/C [2]: 106 % of control | T/C [3]: 93 % of control
